SMILES strings stand for the structures.

For experiment [1], the system named is Hypomyces mycophilus IFO 6785 strain. Briefly: D-amino acid production from N-acetyl-D-amino acid by washed fungal cells. The conditions noted are these: Hypomyces mycophilus IFO 6785 cells; 0.1% substrate, Tris-HCl pH 7.5, 30° C., 24 hours. The class given is cell-based. As to the method: (§1) A platinum loopful of Hypomyces aurantius IFO 6847 strain, Hypomyces broomeanus IFO 9164 strain, Hypomyces rosellus IFO 6911 strain, Hypomyces chrysospermus IFO 6817 strain, Hypomyces sepulcralis IFO 9102 strain, Hypomyces subiculosus IFO 6892 strain, Hypomyces mycophilus ATCC 76474 or IFO 6785 strain, or Fusarium solani IFO 9974 or IFO 9975 strain was inoculated into 25 ml of YM medium (containing 0.3% yeast extract, 0.3% malt extract, 0.5% peptone, and 2.0% glucose, pH 6.0) in a 500-ml shouldered flask. The fungi were shake-cultured at 24° C. for 3 days. After culturing, a 5-ml aliquot of the culture medium was centrifuged in a refrigerated centrifuge to collect the fungal cells. The cells were washed with physiological saline solution (5 ml) and collected by centrifugation again. A reaction solution (containing 0.1% N-acetyl-D-amino acid shown in Table 1 below in Tris-HCl buffer, pH 7.5) was then added to the cells thus collected. The mixture was incubated in a 5-ml test tube with shaking at 30° C. for 24 hours.
(§2) D-Amino acid thus produced was determined by high-performance liquid chromatography (column, CROWNPAK CR (Daicel Chemical); column temperature, 26° C.; cooled in ice for only valine; mobile phase, HClO4 aqueous solution, pH 2.0; flow rate, 1 ml/min; and detection, 200 nm).

Experiment [2] concerns Hypomyces aurantius IFO 6847 strain. The experiment is described as above. The conditions noted are these: Hypomyces aurantius IFO 6847 cells; 0.1% substrate, Tris-HCl pH 7.5, 30° C., 24 hours. The class given is cell-based. On the procedure: as §1, §2
Experiment [3] has as its system Hypomyces chrysospermus IFO 6817 strain. The description is as above. The settings on record: Hypomyces chrysospermus IFO 6817 cells; 0.1% substrate, Tris-HCl pH 7.5, 30° C., 24 hours. Type of experiment: cell-based. As to the method:
as §1, §2

Experiment [4] relates to Hypomyces broomeanus IFO 9164 strain. The experiment is described as above. The class given is cell-based. The settings on record: Hypomyces broomeanus IFO 9164 cells; 0.1% substrate, Tris-HCl pH 7.5, 30° C., 24 hours. On the procedure:
as §1, §2

Experiment [5] deals with Hypomyces sepulcralis IFO 9102 strain. The experiment is described as above. Type of experiment: cell-based. The settings on record: Hypomyces sepulcralis IFO 9102 cells; 0.1% substrate, Tris-HCl pH 7.5, 30° C., 24 hours. As to the method:
as §1, §2

The test system of the next experiment is Fusarium solani IFO 9974. The description is as above. Type of experiment: cell-based. The conditions noted are these: Fusarium solani IFO 9974 cells; 0.1% substrate, Tris-HCl pH 7.5, 30° C., 24 hours. As to the method:
as §1, §2

In experiment [6] the test system is Hypomyces subiculosus IFO 6892 strain. The description is as above. Type of experiment: cell-based. The settings on record: Hypomyces subiculosus IFO 6892 cells; 0.1% substrate, Tris-HCl pH 7.5, 30° C., 24 hours. On the procedure:
as §1, §2

Experiment [7] has as its system Hypomyces rosellus IFO 6911 strain. The description is as above. Type of experiment: cell-based. The settings on record: Hypomyces rosellus IFO 6911 cells; 0.1% substrate, Tris-HCl pH 7.5, 30° C., 24 hours. On the procedure: as §1, §2
Experiment [8] concerns Hypomyces mycophilus ATCC 76474. Described as above. The class given is cell-based. The conditions noted are these: Hypomyces mycophilus ATCC 76474 cells; 0.1% substrate, Tris-HCl pH 7.5, 30° C., 24 hours. As to the method:
as §1, §2

For experiment [9], the system named is Fusarium solani IFO 9975 strain. The description is as above. The class given is cell-based. The conditions noted are these: Fusarium solani IFO 9975 cells; 0.1% substrate, Tris-HCl pH 7.5, 30° C., 24 hours. On the procedure:
as §1, §2

The next experiment has as its system D-aminoacylase. Briefly: Substrate specificity of purified D-aminoacylase (TNBS method). Type of experiment: biochemical, Hypomyces mycophilus IFO 6785. The conditions noted are these: for percentage of the specific activity compared with that for N-acetyl-D-methionine taken as 100%, D-enantiomer: 20 mM substrate, 50 mM Tris-HCl pH 7.5, 30° C., 20 min; for activity of the enzyme for the substrate (in words): summary of Table 5. On the procedure: The enzyme activity was assayed by determining the amount of amino acid produced using the TNBS method and the HPLC method. In the TMBS method, 100 mM Na2B4O7 (0.5 ml) was added to a sample solution containing amino acid (0.5 ml), 20 μl of 110 mM TNBS (trinitrobenzenesulfonic acid) was then added, and the resulting mixture was quickly stirred. After 5 min, 100 mM NaH2PO4 containing 1.5 mM Na2SO3 (2 ml) was added to the reaction mixture to terminate the color reaction, and the absorbance at 420 nm was measured. HPLC was performed by subjecting a sample solution containing amino acid to high-performance liquid chromatography using an ODS column (column, Wakosil II 5C18 (4.6 dia.×250 mm) (Wako Pure Chemical); eluent, CH3CN/50 mM KH2PO4. H3PO4 (pH 2.5)=2:8; detection, A280 nm; and flow rate, 1.0 ml/min). The retention times were 3.5 min for D-tryptophan and 9.8 min for N-acetyl-D-tryptophan. Using D-tryptophan as the assay standard, one unit (or U) of the enzyme was defined as the amount of the enzyme required to produce 1 μmol of D-tryptophan at 30° C. for 1 min.
Substrate specificity of the enzyme was expressed as the percentage of the specific activity compared with that for N-acetyl-D-methionine taken as 100%. N-chloroacetyl-D-phenylalanine, N-acetyl-D-valine, N-acetyl-D-phenylalanine, N-acetyl-D-tryptophan, N-acetyl-D-leucine, N-acetyl-L-valine, N-acetyl-L-phenylalanine, N-acetyl-L-tryptophan, and N-acetyl-L-leucine substrates were used for the comparison. The enzyme reaction was performed in 50 mM Tris-HCl (pH 7.5) containing 1 µl of the enzyme solution and 20 mM of each substrate (total volume 1.0 ml) at 30° C. for 20 min, and terminated by adding 0.5 ml of a TCA reaction terminating solution according to Tsai et al. (consisting of 110 mM trichloroacetic acid, 220 mM sodium acetate, and 330 mM acetic acid). The enzyme activity was assayed by the TNBS method as described in Example 4(2).

Experiment [10] relates to D-aminoacylase (crude enzyme) of Auricularia auriculajudae IFO 5949. Briefly: Crude enzyme activity for each N-Ac-D-amino acid substrate. The settings on record: Auricularia auriculajudae IFO 5949 crude enzyme; 20 mM substrate, 1 mM CoCl2, 50 mM phosphate buffer pH 7.0. The class given is biochemical. As to the method: (§3) Auricularia auriculajudae IFO 5949, Pythium aphanidermaatum IFO 7030, and Menisporopsis novaezelandiae IFO 9179 were each inoculated into sterilized media (100 ml each) (Czapek Dox Broth for IFO 5949, YM1 medium for IFO 7030, and POTATO DEXTROSE BROTH for IFO 9179) in 500-ml Erlenmeyer flasks. The fungi were cultured on a rotary shaker at 210 rpm at 24° C. for 7 days and collected by centrifugation using a […] centrifuge with a RPR10-2 rotor at 8,000 rpm (12,500×g) for 20 min. […] Disrupted cells thus obtained were centrifuged using a […] centrifuge with a RPR20-2 rotor at 17,500 rpm (38,000×g) for 30 min at 4° C. to obtain the supernatant as the crude enzyme. […] Figures in the table denote the amount (mM) of D-amino acids produced from the corresponding N-acetyl-D-amino acids. The D-aminoacylase activity was detected in all the strains tested, producing D-amino acid from the corresponding N-acetyl-D-amino acid.

Experiment [11] concerns D-aminoacylase (crude enzyme) of Menisporopsis novaezelandiae IFO 9179. Described as above. Type of experiment: biochemical. The conditions noted are these: Menisporopsis novaezelandiae IFO 9179 crude enzyme; 20 mM substrate, 1 mM CoCl2, 50 mM phosphate buffer pH 7.0. On the procedure: as §3

For the compound `CC(=O)N[C@H](CC(C)C)C(=O)O` [N-acetyl-D-leucine], the “D-amino acid produced from N-acetyl-D-amino acid” value (“D-amino acid produced” for short) in experiment [1] came out at 0.55 mg/mL; in [2] it was 0 mg/mL; in experiment [3], 1.05 mg/mL; in experiment [4], 0 mg/mL; in experiment [5], 1.60 mg/mL; with Fusarium solani IFO 9974 it was 0.14 mg/mL. For the same compound, the “D-amino acid produced” value was 0.10 mg/mL in experiment [6], 0.3 mg/mL in experiment [7], 0.11 mg/mL in [8] and 0.21 mg/mL in experiment [9]. In addition, in the experiment with D-aminoacylase, the “percentage of the specific activity compared with that for N-acetyl-D-methionine taken as 100%, D-enantiomer” value (“percentage … as 100%, D-enantiomer” below) is recorded as 77.5%. Besides, the “activity of the enzyme for the substrate (in words)” value (shortened to “activity of the enzyme”) with D-aminoacylase was “very active”. For the same compound, in [10], the “amount of D-amino acids produced from the corresponding N-acetyl-D-amino acids” value (“amount of D-amino acids produced” below) is 2.68 mM.

As for `CC(=O)N[C@H](Cc1ccccc1)C(=O)O` [N-acetyl-D-phenylalanine], the “D-amino acid produced” value in [1] is 0.65 mg/mL; in experiment [2] it was 0.005 mg/mL; in [3], 0.003 mg/mL; in experiment [4], 0.004 mg/mL; in experiment [5] it was 0.15 mg/mL; with Fusarium solani IFO 9974, 0.001 mg/mL. Moreover, the “D-amino acid produced” value was 0.05 mg/mL in [6], 0.06 mg/mL in experiment [7], 0.003 mg/mL in experiment [8] and 0.002 mg/mL in experiment [9]. In addition, in the experiment with D-aminoacylase, the “percentage … as 100%, D-enantiomer” value stood at 298%. Besides, the “activity of the enzyme” value in the experiment on D-aminoacylase is “especially active”. For the same compound, the entries for the “amount of D-amino acids produced” value in experiment [10] and in [11] were 4.34 mM and 0.44 mM, respectively.

For the compound `CC(=O)N[C@H](Cc1c[nH]c2ccccc12)C(=O)O` [N-acetyl-D-tryptophan], the “D-amino acid produced” value amounted to 0.40 mg/mL in experiment [1]; 0.008 mg/mL in [2]; 0.001 mg/mL in experiment [3]; 0.002 mg/mL in [4]; 0.01 mg/mL in experiment [5]; 0 mg/mL in the experiment on Fusarium solani IFO 9974. Moreover, the “D-amino acid produced” value stood at 0.002 mg/mL in [6], 0.08 mg/mL in experiment [7], 0.27 mg/mL in [8] and 0.001 mg/mL in experiment [9]. In the experiment with D-aminoacylase, the “percentage … as 100%, D-enantiomer” value is listed as 109%. Also, the “activity of the enzyme” value in the experiment on D-aminoacylase is “very active”. In addition, the “amount of D-amino acids produced” value in [10] is 2.44 mM; in experiment [11] it was 1.30 mM.

Take `CC(=O)N[C@@H](C(=O)O)C(C)C` [N-acetyl-D-valine]: the “D-amino acid produced” value in experiment [1] worked out at 0.98 mg/mL; in [2], 0.14 mg/mL; in [3] it was 3.16 mg/mL; in experiment [4] it was 0.18 mg/mL; in experiment [5] it was 3.19 mg/mL; with Fusarium solani IFO 9974, 0 mg/mL. The “D-amino acid produced” value in experiment [6] was 0.23 mg/mL; in experiment [7], 2.73 mg/mL; in experiment [8], 0.11 mg/mL; in experiment [9], 0.22 mg/mL. For the same compound, in the experiment with D-aminoacylase, the “percentage … as 100%, D-enantiomer” value turned out to be 17.5%. For the same compound, in the experiment on D-aminoacylase, the “activity of the enzyme” value is reported as “somewhat active”. The “amount of D-amino acids produced” value in experiment [10] stood at 3.33 mM; in [11], 0.16 mM.

(Values after patent US6905861B2, “D-aminoacylases, method for producing the same, and method for producing D-amino acids using the same” (Daicel Chemical Industries, Ltd., priority 1998, dated 2005).)
